What was measured:
Type in all cases: cell-based, mouse
[1] = test system: HA-tagged I-Sce1; assay: Quantitative RT-PCR of HA-tagged I-Sce1 expression; conditions: 200 ng/ml colcemid or 2.5 mM thymidine, 48 hrs; normalized to HPRT
Procedure: To measure HA-tagged I-Sce1 expression levels, quantitative RT-PCR was performed as described in 2.4.5. Primers used are the following: HA-ISce1-FOR, 5′-[…]-3′ (SEQ ID NO: 143); ISce1-REV2, 5′-[…]-3′ (SEQ ID NO: 144); HPRT_F, 5′-[…]-3′ (SEQ ID NO: 145); HPRT_R, 5′-[…]-3′ (SEQ ID NO: 146).

[2] = test system: de novo telomere addition on chr4 in SL13 cells; assay: ADDIT assay (Addition of de novo initiated telomeres): modified STELA PCR and PacBio sequencing
Source text: To examine potential mammalian genes that regulate telomere length, an assay was developed that allows visualization of telomere addition in vivo, referred here as ADDIT (Addition of de novo initiated telomeres). In a chromosomally stable CASTEiJ mouse fibroblast cell line, chromosome 4 (chr4) was modified to generate an internal 480 bp telomere ‘seed’ sequence followed by a unique I-Sce1 endonuclease cut site (FIG. 1A). The length of seed sequence was based on an early study showing that 400 bp of telomere repeats can act as functional telomeres. Using Southern blot analysis, two independent HYG-positive clones were identified, clone 1L and 1M, with a single chr4 allele correctly modified (data not shown).
To better visualize the telomere addition on the I-Sce1 cut telomere seed, the single telomere length analysis (STELA) (Baird et al., 2004, Hum Mol Genet 13, 1515-1524), a PCR-based approach that can measure telomere lengths from individual chromosome ends was modified. The STELA assay employs annealing and ligation of a linker, ‘telorette’, with TTAGGG and a unique 20-nucleotide sequence to the G-rich 3′ telomere overhang followed by PCR of the telomere from a ‘teltail’ primer and primer in the HYG sequence on the engineered chromosome (FIG. 2). The PCR product lengths will be proportional to the telomere lengths at the cleaved chr4 allele. As a control, to amplify the un-extended cut chromosome in vitro, a different linker, ‘IScerette’ was designed, which has a 4-nt homology to the 4-nt 3′ overhang created by the I-Sce1 endonuclease at the cleavage site (FIG. 2). […] This in vitro IScerette PCR product serves as a marker for the base line length of the cut, unextended telomere seed sequence.
To further verify the longer STELA PCR products represent de novo telomere addition, the PCR products were sequenced with Pacific Biosciences (PACBIO®) next generation sequencing technology. The PACBIO® platform produces longer reads and is less GC bias compared to other next generation sequencing platforms. While errors were present in the sequence as expected, the telomere repeats were easily recognizable. All of the reads from the PACBIO® were filtered and only those that had unique HYG sequence followed by telomere sequence and the ‘teltail’ primer sequence were examined. This assures that only full length of STELA PCR products were analyzed. The reads were then aligned at the junction between the HYG sequence and the telomere repeats. Wild-type TTAGGG repeats were colored orange and variant telomere repeats were colored in darker orange (FIG. 3A). Some of these variants arose due to errors in sequencing. An error rate similar to the published error rate of PACBIO® sequencing, 10-15% was observed. The errors were uniformly distributed over the reference sequence, dominated by point insertions and deletions, as expected for PACBIO® sequencing. There were three regions of divergent sequence in the original construct that are evident as darker orange stripes in the aligned reads (see for reference, in vitro IScelrette). These are small variation in TTAGGG sequence in the original SL13 clone and serve as useful internal reference points.
The original STELA protocol used for human cells (Baird et al., 2004, Hum Mol Genet 13, 1515-1524) was modified to measure telomere lengths on the de novo end of chr4 in SL13 cells. Briefly, genomic DNA was extracted using Puregene Core Kit A ^TM (Qiagen). 4 μg of genomic DNA was digested with SphI (NEB) and later diluted to 10 ng/μl in water. For the in vitro IScerette sample, genomic DNA was digested with SphI and I-SceI (NEB) prior to ligation. The ligation was carried out at 35° C. for at least 12 hrs in a volume of 10 μl containing 10 ng of digested genomic DNA, 0.9 μM of telorette linkers (mixture of telorette 1 to 6) or IScerette linker and 0.5 U of T4 DNA ligase (NEB) in 1× T4 ligation buffer. […]

[3] = test system: SL13 cells; assay: Cell cycle profile by propidium iodide staining and flow cytometry; conditions: 200 ng/ml colcemid or 2.5 mM thymidine, 24 hrs
Procedure: SL13 cells were grown in DMEM (Gibco) supplemented with 1% Penicillin/Streptomycin/Glutamine and 10% Tet system approved FBS (Clontech, #631107). Final concentration of 2 μg/ml of doxycycline was added in the media to induce I-Sce1 expression. Typically cells were collected post 48 hours of doxcycline treatment. To arrest cells in different cell cycle phases, cells were treated with either final concentration of 200 ng/ml colcemid (Gibco KaryoMAX Colcemid Solution, #15212-012) or 2.5 mM Thymidine (Sigma, #T-1895).
Cell cycle phase was accessed by DNA content using propidium iodide (PI) staining and flow cytometry analysis. Briefly, cell pellets were washed with 1× PBS at 500× g for 5 minutes and resuspended in 500 μl of 1× PBS. 4.5 ml of ice cold 70% ethanol was added drop by drop, and incubated overnight at 4° C. Samples were washed with 5 ml 1× PBS and incubated with 500 μl of PI-Triton resuspension buffer at room temperature for ≥30 minutes protected from light. PI-Triton resuspension buffer was made of 0.1% Triton™ X-100, 200 μg/ml RNase A, 20 μg/ml PI (Invitrogen, #P3566) in 1× PBS. PI-stained samples were transferred to strainer tubes (BD Falcon) and run on FACSCalibur™ flow cytometry (BD Biosciences). Cell cycle profiles were analyzed utilizing the Dean-Jet-Fox™ model in FlowJo™ software (FlowJo™).

[4] = test system: SL13 cells; assay: Southern blot of genomic DNA for de novo telomere addition smear in arrested cells; conditions: cells arrested in G1 phase versus control cells and G2/M cells
Source text: To examine the in vivo chr4 cleavage and de novo telomere addition, genomic DNA extracted from SL13 cells arrested at different cell phases and treated with doxycycline for various time points were digested with Ncol restriction enzyme (NEB) and further analyzed by Southern blot as described previously in Example 1 with a random primed α-32P-labeled HYG probe.

Row | Structure (SMILES) | I-Sce1 expression in cells arrested at different phases [1] | PacBio reads with de novo telomere addition in cells held in G2/M phase ([2]; 200 ng/ml colcemid, 48 hrs) | cell cycle phase of arrest [3] | 'smear' representative of de novo telomere addition [4] | elongation beyond the chr4 I-Sce1-induced cut base line ([2]; Southern blot analysis of STELA PCR products, 400 nM flavopiridol)
1 | CN[C@H]1CCc2cc(OC)c(OC)c(OC)c2-c2ccc(OC)c(=O)cc21 [colcemid] | no significant difference | significant percentage of PacBio® reads with de novo telomere addition | arrested in G2/M phase |  | 
2 | Cc1cn([C@H]2C[C@H](O)[C@@H](CO)O2)c(=O)[nH]c1=O [thymidine] | no significant difference |  | G1/early S phase | even less ‘smear’ | 
3 | CN1CC[C@H](c2c(O)cc(O)c3c(=O)cc(-c4ccccc4Cl)oc23)[C@H](O)C1 [flavopiridol] |  |  |  |  | minimal elongation

Reference: patent publication US11156599B2, “Assay for telomere length regulators” (The Johns Hopkins University, priority 2015, dated 2021)
